The structures appear in SMILES notation. In brackets after ≈: the same amount, converted by molar mass. Several values for one entry are separate records, joined by “and”; a condition that tells them apart may be missing. Equal entries are not always repeated.

Some test systems named below: Pseudomonas aeruginosa; Staphylococcus aureus; Escherichia coli B; Bacillus subtilis 168; Acinetobacter baumannii; Escherichia coli UB1005; Klebsiella pneumoniae; Escherichia coli.
What all share (experiment): ≥ marks a high value that may be exact or a test limit, other limits are often not marked, values filed in µg/mL are converted to µM
Assay [1] concerns Pseudomonas aeruginosa ATCC 9027.
Assay [2] relates to Klebsiella pneumoniae ATCC 700603.
In assay [3] the test system is Staphylococcus aureus ATCC 25923.
In assay [4] the test system is Escherichia coli ATCC 25922.
The test system of assay [5] is Staphylococcus aureus ATCC 29213.
Assay [6] has as its system Salmonella enterica subsp. enterica serovar Typhimurium C77-31.
The test system of assay [7] is Staphylococcus epidermidis ATCC 12228.
The subject of assay [8] is Enterococcus faecalis ATCC 29212.
For assay [9], the system named is Pseudomonas aeruginosa ATCC 27853.
The subject of assay [10] is Salmonella enterica subsp. enterica serovar Typhimurium ATCC 14028.
Assay [11] has as its system Klebsiella pneumoniae ATCC 13883.
For assay [12], the system named is Acinetobacter baumannii ATCC 19606.

In general, MIC refers to the lowest concentration found to suppress growth. High values mean a less susceptible organism, low ones a more susceptible organism. For the compound `CC[C@H](C)[C@H](NC(=O)[C@H](CC(C)C)NC(=O)[C@H](CCCCN)NC(=O)CNC(=O)[C@H](CC(C)C)NC(=O)[C@@H](NC(=O)[C@H](CCCCN)NC(=O)[C@H](CO)NC(=O)[C@H](Cc1c[nH]c2ccccc12)NC(=O)[C@H](CCSC)NC(=O)CN)[C@@H](C)CC)C(=O)N[C@@H](CCCN=C(N)N)C(N)=O` [GMWSKILGKLIR], the MIC in the assay with Pseudomonas aeruginosa was determined as 26.3 µM (≈ 36.8 µg/mL); against Staphylococcus aureus it was 9.2 µM (≈ 12.9 µg/mL); against Escherichia coli B, 3.7 µM (≈ 5.18 µg/mL); against Bacillus subtilis 168, 0.9 µM (≈ 1.26 µg/mL).

In the case of `CC[C@H](C)[C@H](NC(=O)[C@H](CC(C)C)NC(=O)[C@@H]1CCCN1C(=O)CNC(=O)[C@H](CC(C)C)NC(=O)[C@@H](NC(=O)[C@H](CCCCN)NC(=O)[C@H](CO)NC(=O)[C@H](Cc1c[nH]c2ccccc12)NC(=O)[C@H](CCSC)NC(=O)CN)[C@@H](C)CC)C(=O)N[C@@H](CCCN=C(N)N)C(N)=O` [GMWSKILGPLIR], the MIC in the assay with Pseudomonas aeruginosa is above 100 µM; in the assay with Staphylococcus aureus, above 100 µM; with Escherichia coli B it was 30 µM (≈ 41.1 µg/mL); in the assay with Bacillus subtilis 168 it was 3.6 µM (≈ 4.93 µg/mL).

On to `CC[C@H](C)[C@H](N)C(=O)N[C@H](C(=O)N[C@H](C(=O)N[C@@H](CCCCN)C(=O)N[C@@H](CO)C(=O)N[C@@H](CC(C)C)C(=O)NCC(=O)N[C@@H](CCCCN)C(=O)N[C@@H](Cc1ccccc1)C(=O)N[C@@H](CC(C)C)C(=O)N[C@@H](CCCCN)C(=O)N[C@@H](CC(N)=O)C(=O)N[C@H](C(=O)NCC(=O)NCC(=O)N[C@@H](Cc1ccccc1)C(=O)N[C@@H](C)C(=O)NCC(=O)O)C(C)C)[C@@H](C)CC)C(C)C` [IVIKSLGKFLKNVGGFAG], for which the minimal inhibitory concentration (MIC) in assay [1] was above 64 µM; in the assay on Acinetobacter baumannii, at least 64 µM; in assay [2], above 64 µM; in [3] it was above 64 µM; in [4] it was above 64 µM.

As for `CC(C)C[C@H](NC(=O)[C@H](CCCN=C(N)N)NC(=O)[C@H](CC(C)C)NC(=O)[C@H](CCCN=C(N)N)NC(=O)[C@@H](NC(=O)[C@H](CCCCN)NC(=O)[C@H](CC(C)C)NC(=O)[C@H](CCCN=C(N)N)NC(=O)[C@H](CC(C)C)NC(=O)[C@H](CCCN=C(N)N)NC(=O)[C@@H](N)CC(C)C)[C@@H](C)O)C(=O)N[C@@H](CCCCN)C(N)=O` [LRLRLKTRLRLK], the MIC came out at 32 µM (≈ 50.1 µg/mL) in assay [5]; 16 µM (≈ 25 µg/mL) in assay [6]; 32 µM (≈ 50.1 µg/mL) in assay [3]; 64 µM (≈ 100 µg/mL) in assay [7]; 4 µM (≈ 6.26 µg/mL) against Escherichia coli UB1005; 4 µM (≈ 6.26 µg/mL) in assay [4].

For the compound `CC(C)C[C@H](NC(=O)[C@H](CCCN=C(N)N)NC(=O)[C@H](CC(N)=O)NC(=O)[C@H](C)NC(=O)[C@H](CCCN=C(N)N)NC(=O)[C@H](CC(C)C)NC(=O)[C@H](Cc1c[nH]c2ccccc12)NC(=O)[C@H](CC(C)C)NC(=O)[C@H](CCCN=C(N)N)NC(=O)[C@H](CCCN=C(N)N)NC(=O)[C@@H](N)CC(C)C)C(N)=O` [LRRLWLRANRL], the MIC in [5] was 128 µM (≈ 188 µg/mL); in assay [6] it was at least 128 µM; in [7] it was above 128 µM; in assay [8], above 128 µM; in assay [9] it was above 128 µM; in [4], 128 µM (≈ 188 µg/mL).

Take `CC[C@H](C)[C@H](NC(=O)[C@H](CC(C)C)NC(=O)[C@H](Cc1cnc[nH]1)NC(=O)CNC(=O)[C@H](CC(C)C)NC(=O)[C@@H](NC(=O)[C@H](CCCCN)NC(=O)[C@H](CO)NC(=O)[C@H](Cc1c[nH]c2ccccc12)NC(=O)[C@@H](N)CCSC)[C@@H](C)CC)C(=O)N[C@@H](CCCN=C(N)N)C(N)=O` [MWSKILGHLIR]: the MIC is above 100 µM in the assay with Pseudomonas aeruginosa, 45 µM (≈ 60.9 µg/mL) in the assay on Staphylococcus aureus, at least 50 µM with Escherichia coli B and 5 µM (≈ 6.76 µg/mL) against Bacillus subtilis 168.

`CC[C@H](C)[C@H](NC(=O)[C@H](CCCN=C(N)N)NC(=O)[C@H](CCCN=C(N)N)NC(=O)[C@H](CC(C)C)NC(=O)[C@H](CCCN=C(N)N)NC(=O)[C@H](Cc1c[nH]c2ccccc12)NC(=O)[C@H](CCCN=C(N)N)NC(=O)[C@@H](NC(=O)[C@H](CCCN=C(N)N)NC(=O)[C@H](Cc1c[nH]c2ccccc12)NC(=O)[C@H](CCCN=C(N)N)NC(=O)[C@H](CC(C)C)NC(=O)[C@H](CCCN=C(N)N)NC(=O)[C@H](CCCN=C(N)N)NC(=O)[C@H](Cc1ccccc1)NC(=O)[C@@H](N)CCCN=C(N)N)[C@@H](C)O)C(N)=O` [RFRRLRWRTRWRLRRI]: the MIC in [5] is 4 µM and 8 µM; in assay [6] it was 4 µM (≈ 9.53 µg/mL); in [7] it was 4 µM (≈ 9.53 µg/mL); in assay [8], 2 µM (≈ 4.77 µg/mL); against Escherichia coli UB1005, 2 µM (≈ 4.77 µg/mL); in assay [4], 4 µM and 8 µM.

For the compound `CC(C)C[C@H](NC(=O)[C@H](CCCN=C(N)N)NC(=O)[C@H](CCCN=C(N)N)NC(=O)[C@H](C)NC(=O)[C@H](Cc1c[nH]c2ccccc12)NC(=O)CNC(=O)[C@H](CCCN=C(N)N)NC(=O)[C@@H](N)CCCN=C(N)N)C(=O)N[C@@H](Cc1ccccc1)C(=O)N[C@@H](Cc1ccccc1)C(=O)N[C@@H](C)C(=O)N[C@@H](Cc1ccc(O)cc1)C(=O)NCC(=O)N[C@@H](CCCN=C(N)N)C(=O)N[C@@H](CCCN=C(N)N)C(N)=O` [RRGWARRLFFAYGRR], the MIC in [10] is 1.5 µM and 2.2 µM; in the assay with Acinetobacter baumannii, 2.6 µM (≈ 5.12 µg/mL); in assay [11] it was 5.4 µM and 8.6 µM; in the assay with Klebsiella pneumoniae it was 1.2 µM (≈ 2.36 µg/mL); in assay [3], above 30 µM; in [12] it was 1.7 µM and 1.5 µM.

Regarding `CC(C)C[C@H](NC(=O)[C@H](CCCN=C(N)N)NC(=O)[C@H](CCCCN)NC(=O)[C@H](CCCN=C(N)N)NC(=O)[C@@H](NC(=O)[C@H](Cc1c[nH]c2ccccc12)NC(=O)[C@H](CCCCN)NC(=O)[C@H](CCCN=C(N)N)NC(=O)[C@H](CC(C)C)NC(=O)[C@H](Cc1c[nH]c2ccccc12)NC(=O)[C@@H](N)CCCN=C(N)N)[C@@H](C)O)C(=O)N[C@@H](CCCCN)C(N)=O` [RWLRKWTRKRLK], the MIC in assay [5] was 64 µM (≈ 110 µg/mL); in [6] it was at least 64 µM; in assay [3], 32 µM (≈ 55.2 µg/mL); in [7], 16 µM (≈ 27.6 µg/mL); with Escherichia coli UB1005 it was 16 µM (≈ 27.6 µg/mL); in assay [4] it was 16 µM (≈ 27.6 µg/mL).

In the case of `CC(C)C[C@H](NC(=O)[C@@H]1CCCN1C(=O)[C@H](CCCN=C(N)N)NC(=O)[C@H](Cc1ccc(O)cc1)NC(=O)[C@@H](NC(=O)[C@@H]1CCCN1C(=O)[C@H](CCCN=C(N)N)NC(=O)[C@H](Cc1ccc(O)cc1)NC(=O)[C@@H]1CCCN1C(=O)[C@@H]1CCCN1C(=O)[C@@H]1CCCN1C(=O)[C@H](CCCN=C(N)N)NC(=O)[C@H](Cc1ccc(O)cc1)NC(=O)[C@@H](NC(=O)[C@H](CC(N)=O)NC(=O)[C@@H](N)CO)C(C)C)C(C)C)C(=O)N[C@@H](CCCN=C(N)N)C(=O)N[C@@H](CCCN=C(N)N)C(=O)N1CCC[C@H]1C(=O)NCC(=O)N[C@@H](Cc1ccc(O)cc1)C(=O)N[C@@H](CCCN=C(N)N)C(=O)N1CCC[C@H]1C(N)=O` [SNVYRPPPYRPVYRPLRRPGYRP], the minimal inhibitory concentration (MIC) in assay [5] was found to be 2 µM (≈ 5.71 µg/mL); in the assay with Acinetobacter baumannii, 2 µM (≈ 5.71 µg/mL); in the assay with Escherichia coli, 2 µM (≈ 5.71 µg/mL); with Staphylococcus aureus it was 32 µM (≈ 91.4 µg/mL); in [12] it was 2 µM (≈ 5.71 µg/mL); in [4], 1 µM (≈ 2.86 µg/mL).

On to `CC[C@H](C)[C@H](NC(=O)[C@H](CCCCN)NC(=O)[C@H](Cc1c[nH]c2ccccc12)NC(=O)[C@H](CCCCN)NC(=O)[C@@H](NC(=O)[C@H](CCCCN)NC(=O)[C@H](Cc1c[nH]c2ccccc12)NC(=O)[C@H](CCCCN)NC(=O)[C@@H](NC(=O)[C@H](CCCCN)NC(=O)[C@@H](N)Cc1c[nH]c2ccccc12)[C@@H](C)CC)[C@@H](C)CC)C(=O)N[C@@H](CCCCN)C(N)=O` [WKIKWKIKWKIK], for which the MIC is 2 µM (≈ 3.37 µg/mL) in [5]; 1.41 µM (≈ 2.38 µg/mL) in the assay with Acinetobacter baumannii; 2 µM (≈ 3.37 µg/mL) in [6]; 4 µM (≈ 6.74 µg/mL) against Pseudomonas aeruginosa; 2 µM (≈ 3.37 µg/mL) in assay [3]; 2 µM (≈ 3.37 µg/mL) in the assay on Escherichia coli. Further, the MIC (in assay [7]; in the assay with Staphylococcus aureus; with Escherichia coli UB1005; in assay [4]) was 2 µM (≈ 3.37 µg/mL) in each case.

These data come from DBAASP.
